# Measurements from patent US8592383B2, “Cycloalkyl-fused tetrahydroquinolines as CRTH2 receptor modulators” (Merck Sharp & Dohme Corp., priority 2011, dated 2013).
# pKi: −log10 of the molar value.
# Target: T1, hCRTH2 (Homo sapiens, UniProt Q9Y5Y4)
# T1 sequence (Q9Y5Y4 1-395): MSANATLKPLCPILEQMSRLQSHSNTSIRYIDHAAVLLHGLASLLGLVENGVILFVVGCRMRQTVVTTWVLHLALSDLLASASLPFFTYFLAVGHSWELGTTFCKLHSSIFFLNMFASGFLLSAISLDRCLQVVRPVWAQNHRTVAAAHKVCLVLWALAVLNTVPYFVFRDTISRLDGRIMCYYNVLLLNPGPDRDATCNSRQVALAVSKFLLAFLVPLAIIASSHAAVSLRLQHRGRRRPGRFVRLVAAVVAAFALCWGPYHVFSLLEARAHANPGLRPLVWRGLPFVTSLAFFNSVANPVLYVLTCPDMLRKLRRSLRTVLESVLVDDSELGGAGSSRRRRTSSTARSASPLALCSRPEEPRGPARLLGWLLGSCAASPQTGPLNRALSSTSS
# Assay: biochemical
# Conditions: Ki (nM)
# Experimental: Competing ligands were diluted in dimethylsulfoxide (Me2SO) that was kept constant at 1% (v/v) of the final incubation volume. The reaction was initiated by the addition of 8-20 g of membrane protein prepared from a human embryonic kidney (HEK)-hCRTH2 cell line. Total and non-specific binding were determined in the absence and the presence of 10 μM PGD2, respectively. Under these conditions, specific binding (total minus non-specific) of the radioligand to the receptor reached equilibrium within 50 min and was stable up to 180 min. The reaction was routinely conducted for 60 min at room temperature and terminated by rapid filtration through prewetted (0.3% polyethyleneimine) 96-well printed Filtermate™ (Wallac) using a Tomtec® harvester (Hamden, Conn.). After washing with cold buffer, the filter was dried for 2 minutes in microwave, and Meltilex Scintillator sheet (Wallac) was melted on for 2 min.
row,SMILES,Ki
1,"O=C(O)CCC(=O)N(C1CC1)[C@@H]1c2ccccc2N(C(=O)OCc2ccc(F)cc2)[C@@H]2CCC[C@@H]21 (single isomer, unassigned) [compound 22, 4-[(4-Fluorophenyl)methyl]cis,cis-[(3-carboxy-1-oxopropyl)cyclopropylamino]-1,2,3,3a,9,9a-hexahydro-4H-cyclopenta[b]quinoline-4-carboxylate]",5.1 to 20 nM

# Same assay, conditions: Ki, Radioligand Binding Assay A; 3.0 nM [3H]PGD2, HEK-hCRTH2 membranes
row,SMILES,pKi
1,"O=C(O)CCC(=O)N(C1CCC1)C1c2ccc(Cl)cc2N(C(=O)c2ccc(F)c(F)c2)C2CCCC21 (single isomer, unassigned) [17Co, 4-[[cis,cis-6-chloro-4-(3,4-difluorobenzoyl)-2,3,3a,4,9,9a-hexahydro-1H-cyclopenta[b]quinolin-9-yl]cyclobutylamino]-4-oxobutanoic acid]",7.96
2,"O=C(O)CCC(=O)N(C1CC1)C1c2ccccc2N(C(=O)c2ccco2)C2CCCC21 (racemic) [17BL, 4-(cyclopropyl(cis,cis-4-(furan-2-carbonyl)-2,3,3a,4,9,9a-hexahydro-1H-cyclopenta[b]quinolin-9-yl)amino)-4-oxobutanoic acid]",7.44
3,"CN(C(=O)CCC(=O)O)C1c2ccccc2N(C(=O)OCc2ccccc2)C2CCCC12 (racemic) [17U, 4-(phenylmethyl) cis,cis-9-[(3-carboxy-1-oxopropyl)methylamino]-1,2,3,3a,9,9a-hexahydro-4H-cyclopenta[b]quinoline-4-carboxylate]",6.22
4,"O=C(O)CCC(=O)N(C1CC1)[C@H]1c2cc(F)ccc2N(C(=O)c2ccc(OC(F)(F)F)cc2)[C@H]2CCC[C@H]21 [compound 17, 4-(cyclopropyl((3aS,9R,9aR)-7-fluoro-4-(4-(trifluoromethoxy)benzoyl)-2,3,3a,4,9,9a-hexahydro-1H-cyclopenta[b]quinolin-9-yl)amino)-4-oxobutanoic acid]",8.29
5,"O=C(O)CCCN(C1CC1)[C@@H]1c2ccccc2N(C(=O)c2ccc(OC(F)(F)F)cc2)[C@@H]2CCC[C@@H]21 (racemic) [compound 44, 4-[Cyclopropyl[cis,cis-2,3,3a,4,9,9a-hexahydro-4-[4-(trifluoromethoxy)benzoyl]-1H-cyclopenta[b]quinolin-9-yl]amino]butanoic acid]",8.59
6,"O=C(O)c1ccccc1C(=O)N(C1CC1)[C@@H]1c2ccccc2N(C(=O)c2ccc(OC(F)(F)F)cc2)[C@@H]2CCC[C@@H]21 (racemic) [17Ci, 2-[[cyclopropyl[cis,cis-2,3,3a,4,9,9a-hexahydro-4-[4-(trifluoromethoxy)benzoyl]-1H-cyclopenta[b]quinolin-9-yl]amino]carbonyl]benzoic acid]",6.08
7,"O=C(O)CCC(=O)N(C1CC1)C1c2ccc(Cl)cc2N(C(=O)c2ccc(OC(F)(F)F)cc2)C2CCC21 (single isomer, unassigned) [27K, 4-[[cis, cis-5-chloro-1,2,2a,3,8,8a-hexahydro-3-[4-(trifluoromethoxy)benzoyl]cyclobuta[b]quinolin-8-yl]cyclopropylamino]-4-oxobutanoic acid]",8.82
8,"CCN(C(=O)CCC(=O)O)C1c2ccccc2N(C(=O)OCc2ccc(F)c(F)c2)C2CCCC12 (single isomer, unassigned) [compound 72, 4-[(3,4-difluorophenyl)methyl] cis, cis-[(3-carboxy-1-oxopropyl)ethylamino]-1,2,3,3a,9,9a-hexahydro-4H-cyclopenta[b]quinoline-4-carboxylate]",7.80
9,"Cc1ccc2c(c1)C(N(C(=O)CCC(=O)O)C1CC1)C1CCCC1N2C(=O)c1ccc(OC(F)(F)F)cc1 (single isomer, unassigned) [compound 51, 4-[Cyclopropyl[cis,cis-2,3,3a,4,9,9a-hexahydro-7-methyl-4-[4-(trifluoromethoxy)benzoyl]-1H-cyclopenta[b]quinolin-9-yl]amino]-4-oxobutanoic acid]",8.16
10,"CCN(C(=O)CCC(=O)O)C1c2ccccc2N(C(=O)C2CC2c2ccccc2)C2CCCC12 (single isomer, unassigned) [compound 69, 4-[ethyl[cis, cis-2,3,3a,4,9,9a-hexahydro-4-[(2-phenyl-1-cyclopropyl)carbonyl]-1H-cyclopenta[b]quinolin-9-yl]amino]-4-oxobutanoic acid]",8.30
11,"CCOc1cnc(-c2ccc(C(=O)N3c4ccccc4C(N(C(=O)CCC(=O)O)C4CC4)C4CCCC43)cc2)nc1 (racemic) [18P, 4-[cyclopropyl[cis,cis-4-[4-(5-ethoxy-2-pyrimidinyl)benzoyl]-2,3,3a,4,9,9a-hexahydro-1H-cyclopenta[b]quinolin-9-yl]amino]-4-oxobutanoic acid]",7.55
